In patent US9446017B2, “Compositions and methods for treating herpes simplex virus” (Augusta University Research Institute, Inc., priority 2005, dated 2016):
Values joined by “and” are separate entries in the source; they are usually repeats but may differ in a detail not shown here. Equal values may be shown once. “Also recorded” adds a separate entry of the source.

How the values were obtained:
[1] = tested on: Vero cells; assay: Cell viability assay, trypan blue and hemocytometer direct cell count; details: for Dead cells / Live cells: FIG. 1 axis Vero cells/ml
Experimental: Vero cells were plated in 6 well plates and after a period of 24 hours different concentrations of EGCG or EGCG-ester (12.5, 25, 50, 75, 100 μM) were added to each well, respectively. After one hour, the polyphenols were aspirated and the cells were washed with PBS. DMEM media was put back into each well and cells were incubated for 24 hrs. Cells were then counted using a hemocytometer and trypan blue which stains the dead cells blue and leaves the live cells white.
The cell viability was determined by using trypan blue and hemacytometer direct cell count to detect the effect of EGCG-ester on Vero cells.

[2] = tested on: HSV1; assay: PCR-based assay of viral DNA, band intensity on agarose gel; type: cell-based; details: for DNA band intensity, primers for glycoprotein D, GFP and VP11/12: HSV1 treated with 75 μM
Description: Nine sets of primers were designed to prime different regions of the HSV1 genome based on published sequences. Two sets of primers were designed to target HSV I glycoprotein D. These include 5′-[…]-3′ (SEQ ID NO:2) for the forward and 5′-[…]-3′ (SEQ ID NO:3) for the reverse. The second set includes 5′-[…]-3′ (SEQ ID NO:4) for the forward and 5′[…]-3′ (SEQ ID NO:5) for the reverse. Next, two sets of primers were designed to target HSV1 glycoprotein B. They are the following: 5′[…]-3′ (SEQ ID NO:6) for the forward and 5′-[…]-3′ (SEQ ID NO:7) for the reverse. The second set includes 5′-[…]-3′(SEQ ID NO:8) for the forward and 5′-[…]-3′ (SEQ ID NO:9) for the reverse. A third set of primers had been previously designed and published on the book Herpes Simplex Virus Protocols by S. Moira Brown and Alasdair R. MacLean. The set includes 5′[…]-3′ (SEQ ID NO:10) for the forward and 5′-[…]-3′ (SEQ ID NO:11) for the reverse. A set of primers was designed to target the Green Fluorescent protein attached to the UL46 gene of HSV 1. It includes 5′-[…]-3′ (SEQ ID NO:14) for the forward and 5′-[…]-3′ (SEQ ID NO:15) for the reverse. A second set of primers designed for the GFP had been previously designed 42. It includes 5′-[…]-3′ (SEQ ID NO:12) for the forward and 5′-[…]-3′ (SEQ ID NO:13) for the reverse. Finally, two sets of primers were designed to target HSV1 tegument protein VP11/12 that corresponds to the UL46 gene. They are the following: 5′-[…]-3′ (SEQ ID NO:16) for the forward and 5′-[…]-3′ (SEQ ID NO:17) for the reverse. The second set includes 5′-[…]-3′ (SEQ ID NO:18) for the forward and 5′[…]-3′ (SEQ ID NO:19) for the reverse. The reaction mix included 1 μL of the extracted DNA, 1 μL of forward and 1 μL of reverse primers, 12.5 μL of Master Mix, and 9.5 μL of diH2O. The mix was put into PCR tubes and placed into a Labnet MultiGene II thermal cycler (Labnet International, Edison N.J.). The reaction profile was initial denaturation at 95° C. for 2 minutes followed by cycles of denaturation at 95° C. for 30 seconds, annealing at 60° C. for 1 minute and extension at 72° C. for 30 seconds. The last step included a final extension period at 72° C. for 10 minutes. […]
Polymerase chain reaction products were analyzed and visualized on 1% agarose gels. […] The gel was then analyzed under UV light using Kodak Image Station 440 CF (Perkin Elmer Life Sciences, Waltham, Mass.).
Cells were grown on 60 mm plates and allowed to reach confluency. […] DNA concentration was then measured by using a Nanodrop Specrophotometer.
DNA extracted from HSV1/Vero cells and EGCG-ester HSV1/Vero cells was purified and isolated and the amount and purity was determined by Nanodrop spectrophotometer ND1000. […]

[3] = tested on: HSV1; assay: Real time PCR of HSV1 glycoprotein D; type: cell-based; details: for fold difference in the amount of glycoprotein D DNA vs HSV1/Vero: Ct based; for inhibits HSV1: FIG. 10
Experimental: A set of primer that primes HSV1 glycoprotein D was designed for use in Real time polymerase chain reaction. This set includes 5″-[…]-3′ (SEQ ID NO:20) for the forward and 5′[…]-3′ (SEQ ID NO:21) for the reverse. Each tube (except the negative controls-no DNA) contained […] of Fast SYBR green master mix (ABI Fast SYBR Green Master Mix), 1 μL of forward primer, 1 μL of reverse primer, […] of genomic DNA and 6 μL of […]. The samples were run on an ABI StepOnePlus Real-Time PCR System. The Run methods were: a holding stage at 95° C. for 5 minutes followed by 40 cycles of denaturation at 95° C. for 1 minute, annealing at 60° C. for 1 minute and extension at 72° C. for 30 seconds. Next, the melting curve stage included 95° C. for 15 seconds, followed by 60° C. for 1 minute, and 95° C. for 15 seconds.
Cells were grown on 60 mm plates and allowed to reach confluency. Cells were then infected with HSV I treated and HSV1 non-treated for 1 hour at 37° C. and 5% CO2. After absorption time, cells were washed with PBS and media was added to the plates. After 12 hours, cells were trypsinized and DNA was extracted using the DNeasy Blood and Tissue Handbook (Qiagen 2006). DNA concentration was then measured by using a Nanodrop Specrophotometer.
The process of real time PCR works by collecting fluorescence data at the end of each cycle of the reaction. The SYBR green dye used in the experiment binds to the double stranded PCR product causing the PCR product to fluoresce. As the reaction continues the instrument recalls the threshold for each sample. The threshold cycle (Ct) is the critical cycle at which the first significance increase in fluorescence is detected. Once the PCR cycles ended, the data were collected and the Ct values for each of the samples were analyzed and the relative quantity (RQ) of fluorescence was reported. The standard for comparing Ct values is that a difference in one Ct is equivalent to a two-fold difference in the amount of DNA. […] of DNA was used for all samples; cells only, HSV1/Vero, and EGCG-ester HSV1/Vero.

[4] = 100 μM, Vero cells, replicate counts

CCCCCCCCCCCCCCCC(=O)Oc1c(O)cc([C@H]2Oc3cc(O)cc(O)c3C[C@H]2OC(=O)c2cc(O)c(O)c(O)c2)cc1O [EGCG-ester]
% of death ([1]; 12.5 μM): 10%
Dead cells ([1]; 12.5 μM): 2.7E+06
Live cells ([1]; 12.5 μM): 2.56E+07
% of death ([1]; 25 μM): 10%
Dead cells ([1]; 25 μM): 2.95E+06
Live cells ([1]; 25 μM): 2.72E+07
% of death ([1]; 50 μM): 10%
Dead cells ([1]; 50 μM): 2.90E+06
Live cells ([1]; 50 μM): 2.89E+07
% of death ([1]; 75 μM): 10%
Dead cells ([1]; 75 μM): 1.70E+06
Live cells ([1]; 75 μM): 2.71E+07
maximum nontoxic concentration ([1]; Vero cells): 75 µM
percentage of cell death ([1]; increasing concentration, compared to control): not changed; also recorded: did not change much
band intensity of glycoprotein D PCR product, average ([2]; 75 μM, control average 525.29): 400.05
band intensity of glycoprotein D PCR product (single reading) ([2]; 75 μM, control readings 445.92, 588.24, 541.73): 353.87 and 438.47 and 407.82
DNA band intensity, primers for glycoprotein D, GFP and VP11/12 [2]: further decreased
fold difference in the amount of glycoprotein D DNA vs HSV1/Vero [3]: 256 fold
inhibits HSV1 [3]: 99.46%

O=C(O[C@@H]1Cc2c(O)cc(O)cc2O[C@@H]1c1cc(O)c(O)c(O)c1)c1cc(O)c(O)c(O)c1 [EGCG, (−)-epigallocatechin-3-gallate, reference compound]
Cells [1, 4]: 167 and 292 and 347
Cells dead [1, 4]: 119 and 134 and 184
DNA band intensity, primers for glycoprotein D, GFP and VP11/12 [2]: decreased
fold difference in the amount of glycoprotein D DNA vs HSV1/Vero [3]: 32 fold
inhibits HSV1 [3]: 95%
